The values below come from PubChem BioAssay (NCI).

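Protocol summary: plate cells (96-well), add compound at 5 concentrations, incubate 48 h, interpolate endpoints linearly. GI50 marks 50% less growth. TGI: total growth inhibition.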

The test system of the first assay is RXF 393 renal. Nature of the assay: NCI-60 cell line screen, 48 h.
In the case of `O=C1CS(=O)(=O)C(c2cccc(Oc3ccccc3)c2)N1c1ccc(Cl)cc1` (stereo not given), the TGI is 43 µM.
The same measure, in the same setting: with `CC1C2CC(C(S(=O)(=O)O)C2=O)C1(C)C` (stereo not given) the figure was > 100 µM; with `N[C@@H]1CCN(c2c(F)cc3c(=O)c(C(=O)O)cn4c3c2Oc2c-4ccc3c2ccc2ccccc23)C1`, > 100 µM.
The same measure, in the same setting: the figure for `Cc1cccc(Cl)c1NCC(O)CN1CCN(C)CC1` (stereo not given) is > 100 µM.
The same measure, in the same setting: with `CNC1(c2cc3ccccc3s2)CCCCC1` the figure was 67.1 µM.
With `Cc1nc2ccc(Br)cc2c(=O)n1-c1nnc(C(C)(C)C)s1`, the TGI was > 10 µM.
The same measure, in the same setting: the figure for `COc1ccc(Cn2c(=O)c(OC)c(C)c3cc4ccccc4cc32)cc1` is > 100 µM.
As for `CCOC(=O)c1ccc(N=C/C=C(\Nc2ccc(C(=O)OCC)cc2)C23CC4CC(CC(C4)C2)C3)cc1`, the TGI was > 100 µM.
The same measure, in the same setting: with `C=CCCON(C(=O)OC(C)(C)C)c1ccccc1` the figure was > 100 µM.
For `CC[C@@H](C)[C@H](NC(=O)[C@H](Cc1ccccc1)NCC(F)(F)F)C(=O)OC(C)(C)C`, the TGI is > 100 µM.
Still for that read-out and setting: with `COC(=O)[C@@H]1C=C[C@H](OC2OC(COC(C)=O)C(OC(C)=O)C(OC(C)=O)C2OC(C)=O)n2c(=O)n(-c3ccccc3)c(=O)n21` (stereo not given in full) the figure was 4.12 µM.
On the same count and under the same terms, the figure for `CC(=O)SCCC(NC(=S)Nc1ccccc1)P(=O)(Oc1ccccc1)Oc1ccccc1` (stereo not given) is > 100 µM; for `CC12C=CC(C)(C3C(=O)C4C(C(=O)C31)C1(C)C=CC4(C)S1=O)S2=O` (stereo not given) it is > 100 µM; for `COc1ccc(-c2c(C(C)=O)c(-c3ccccc3)n(C3OC(CO)C(O)C(O)C3O)c(=S)c2C#N)cc1` (stereo not given) it is > 100 µM.
The same measure, in the same setting: with `CCCCCCCC(CC(=O)NC(CO)C(=O)NC(CO)CC(C)C)OC(=O)CC(CCCCCCC)OC(=O)CC(CCCCCCC)OC1OC(C)C(O)C(OC2OC(C)C(OC(C)=O)C(O)C2O)C1O` (stereo not given) the figure was 16.9 µM; with `O=C(NN1C(=O)C(Cl)C1c1ccc(Cl)cc1)c1c(Cl)c(Cl)c(Cl)c(Cl)c1-c1nc2ccccc2[nH]1` (stereo not given), 17.9 µM.

For the next assay, the system named is K-562 leukemia. The assay can be described thus: NCI-60 cell line screen, 48 h.
The compound `O=C1CS(=O)(=O)C(c2cccc(Oc3ccccc3)c2)N1c1ccc(Cl)cc1` (stereo not given) registered a TGI of 63 µM.
Same read-out and setting: with `O=C(O)CO[C@@]12C#C/C=C\C#C[C@@H]3N(C(=O)Oc4ccccc4)c4ccccc4[C@]14O[C@@]34CCC2` the figure was 92.9 µM.
On the same count and under the same terms, the figure for `CC(C)(C)C1=C(Br)C(C(C)(C)C)OP1(=O)O` (stereo not given) is > 100 µM; for `CC1C2CC(C(S(=O)(=O)O)C2=O)C1(C)C` (stereo not given) it is > 100 µM.
Same read-out and setting: the figure for `N[C@@H]1CCN(c2c(F)cc3c(=O)c(C(=O)O)cn4c3c2Oc2c-4ccc3c2ccc2ccccc23)C1` is > 100 µM.
On to `Cc1cccc(Cl)c1NCC(O)CN1CCN(C)CC1` (stereo not given), for which the TGI was > 100 µM.
Same read-out and setting: the figure for `CNC1(c2cc3ccccc3s2)CCCCC1` is > 100 µM; for `Cc1nc2ccc(Br)cc2c(=O)n1-c1nnc(C(C)(C)C)s1` it is > 10 µM; for `Cc1ccc(C2(O)CSC(=NC34CC5CC(CC(C5)C3)C4)N2C(P(=O)(O)O)P(=O)(O)O)cc1` (stereo not given) it is > 100 µM.
Same read-out and setting: the figure for `CC1(C)C2CCC1(C)C(N/C(Sc1ccccc1)=C(/C(Cl)=C(Cl)Cl)[N+](=O)[O-])C2` (stereo not given) is > 100 µM.
The same measure, in the same setting: with `COc1ccc(Cn2c(=O)c(OC)c(C)c3cc4ccccc4cc32)cc1` the figure was > 100 µM; with `N#Cc1c(-c2ccc(Cl)cc2)c2c(n(C3OC(CO)C(O)C(O)C3O)c1=S)CCCC2` (stereo not given), > 100 µM.
Consider `COC(=O)C1Cc2cc3c(cc2C1=O)CCC3` (stereo not given), for which the TGI is > 100 µM.
The same measure, in the same setting: with `CN(/N=C/c1ccc(C(=O)O)cc1)C1=NCCCCN1` the figure was > 100 µM; with `CCOC(=O)c1ccc(N=C/C=C(\Nc2ccc(C(=O)OCC)cc2)C23CC4CC(CC(C4)C2)C3)cc1`, > 100 µM; with `C=CCCON(C(=O)OC(C)(C)C)c1ccccc1`, > 100 µM.
`CC[C@@H](C)[C@H](NC(=O)[C@H](Cc1ccccc1)NCC(F)(F)F)C(=O)OC(C)(C)C`: the TGI was > 100 µM.
Still for that read-out and setting: the figure for `COC(=O)[C@@H]1C=C[C@H](OC2OC(COC(C)=O)C(OC(C)=O)C(OC(C)=O)C2OC(C)=O)n2c(=O)n(-c3ccccc3)c(=O)n21` (stereo not given in full) is 4.02 µM; for `CC(=O)SCCC(NC(=S)Nc1ccccc1)P(=O)(Oc1ccccc1)Oc1ccccc1` (stereo not given) it is > 100 µM; for `CCOC(=O)Nc1cc2c(c(N)n1)N=C(c1ccc(OC)cc1)CN2` it is 1.32 µM.
As for `Nc1ccccc1CCN1CCN(CCCc2ccccc2)CC1`, the TGI was > 100 µM.
Consider `CC(C)(C)C1CCC(=O)/C(=C/CC2CC(=O)N(c3ccccc3)C(=O)C2)C1` (stereo not given), for which the TGI is 48.3 µM.
For `COc1ccc(-c2c(C(C)=O)c(-c3ccccc3)n(C3OC(CO)C(O)C(O)C3O)c(=S)c2C#N)cc1` (stereo not given), the TGI was > 100 µM.
On the same count and under the same terms, with `CCCCCCCC(CC(=O)NC(CO)C(=O)NC(CO)CC(C)C)OC(=O)CC(CCCCCCC)OC(=O)CC(CCCCCCC)OC1OC(C)C(O)C(OC2OC(C)C(OC(C)=O)C(O)C2O)C1O` (stereo not given) the figure was 34.3 µM; with `O=C(NN1C(=O)C(Cl)C1c1ccc(Cl)cc1)c1c(Cl)c(Cl)c(Cl)c(Cl)c1-c1nc2ccccc2[nH]1` (stereo not given), > 100 µM.

In the next assay the test system is IGROV1 ovarian. Nature of the assay: NCI-60 cell line screen, 48 h.
`O=C1CS(=O)(=O)C(c2cccc(Oc3ccccc3)c2)N1c1ccc(Cl)cc1` (stereo not given) had a TGI of 39 µM.
On the same count and under the same terms, with `O=C(O)CO[C@@]12C#C/C=C\C#C[C@@H]3N(C(=O)Oc4ccccc4)c4ccccc4[C@]14O[C@@]34CCC2` the figure was > 100 µM.
On the same count and under the same terms, with `CC(C)(C)C1=C(Br)C(C(C)(C)C)OP1(=O)O` (stereo not given) the figure was > 100 µM.
As to `CC1C2CC(C(S(=O)(=O)O)C2=O)C1(C)C` (stereo not given), the TGI is > 100 µM.
On the same count and under the same terms, with `N[C@@H]1CCN(c2c(F)cc3c(=O)c(C(=O)O)cn4c3c2Oc2c-4ccc3c2ccc2ccccc23)C1` the figure was 36.3 µM.
Still for that read-out and setting: the figure for `Cc1cccc(Cl)c1NCC(O)CN1CCN(C)CC1` (stereo not given) is > 100 µM; for `CNC1(c2cc3ccccc3s2)CCCCC1` it is 84.6 µM; for `Cc1nc2ccc(Br)cc2c(=O)n1-c1nnc(C(C)(C)C)s1` it is > 10 µM.
As to `Cc1ccc(C2(O)CSC(=NC34CC5CC(CC(C5)C3)C4)N2C(P(=O)(O)O)P(=O)(O)O)cc1` (stereo not given), the TGI is > 100 µM.
Compound `COc1ccc(Cn2c(=O)c(OC)c(C)c3cc4ccccc4cc32)cc1` returned a TGI of 57 µM.
The same measure, in the same setting: with `N#Cc1c(-c2ccc(Cl)cc2)c2c(n(C3OC(CO)C(O)C(O)C3O)c1=S)CCCC2` (stereo not given) the figure was > 100 µM; with `COC(=O)C1Cc2cc3c(cc2C1=O)CCC3` (stereo not given), > 100 µM.
Still for that read-out and setting: the figure for `CN(/N=C/c1ccc(C(=O)O)cc1)C1=NCCCCN1` is > 100 µM; for `CCOC(=O)c1ccc(N=C/C=C(\Nc2ccc(C(=O)OCC)cc2)C23CC4CC(CC(C4)C2)C3)cc1` it is > 100 µM; for `C=CCCON(C(=O)OC(C)(C)C)c1ccccc1` it is > 100 µM.
On the same count and under the same terms, the figure for `CC[C@@H](C)[C@H](NC(=O)[C@H](Cc1ccccc1)NCC(F)(F)F)C(=O)OC(C)(C)C` is > 100 µM.
`COC(=O)[C@@H]1C=C[C@H](OC2OC(COC(C)=O)C(OC(C)=O)C(OC(C)=O)C2OC(C)=O)n2c(=O)n(-c3ccccc3)c(=O)n21` (stereo not given in full) registered a TGI of 12 µM.
Same read-out and setting: with `CC(=O)SCCC(NC(=S)Nc1ccccc1)P(=O)(Oc1ccccc1)Oc1ccccc1` (stereo not given) the figure was > 100 µM.
Turning to `CCOC(=O)Nc1cc2c(c(N)n1)N=C(c1ccc(OC)cc1)CN2`, the GI50 was 0.0355 µM and the TGI is 0.0741 µM.
As for `Nc1ccccc1CCN1CCN(CCCc2ccccc2)CC1`, the TGI was > 100 µM.
The same measure, in the same setting: with `CC(C)(C)C1CCC(=O)/C(=C/CC2CC(=O)N(c3ccccc3)C(=O)C2)C1` (stereo not given) the figure was 44.5 µM; with `CC12C=CC(C)(C3C(=O)C4C(C(=O)C31)C1(C)C=CC4(C)S1=O)S2=O` (stereo not given), > 100 µM; with `COc1ccc(-c2c(C(C)=O)c(-c3ccccc3)n(C3OC(CO)C(O)C(O)C3O)c(=S)c2C#N)cc1` (stereo not given), > 100 µM.
